# Results published in ChEMBL document CHEMBL5365497, “Developing Novel Coumarin-Containing Azoles Antifungal Agents by the Scaffold Merging Strategy for Treating Azole-Resistant Candidiasis” (J Med Chem, 2023).
# Key:
# Assay type in all cases: functional
# Candida albicans [1] = assay: Antifungal activity against Candida albicans CPCC400616 assessed as fungal growth inhibition by CLSI based microdilution method
# Candida albicans [2] = assay: Antifungal activity against Candida albicans SC5314 assessed as fungal growth inhibition by CLSI based microdilution method
# Candida parapsilosis = assay: Antifungal activity against Candida parapsilosis assessed as fungal growth inhibition by CLSI based microdilution method; conditions: Lodderomyces parapsilosis
# Nakaseomyces glabratus = assay: Antifungal activity against Candida glabrata assessed as fungal growth inhibition by CLSI based microdilution method
# Pichia kudriavzevii = assay: Antifungal activity against Pichia kudriavzevii assessed as fungal growth inhibition by CLSI based microdilution method
# Candida tropicalis = assay: Antifungal activity against Candida tropicalis assessed as fungal growth inhibition by CLSI based microdilution method
# Cryptococcus neoformans = assay: Antifungal activity against Cryptococcus neoformans assessed as fungal growth inhibition by CLSI based microdilution method
# Candida albicans [3] = assay: Antifungal activity against fluconazole-resistant Candida albicans CaR assessed as fungal growth inhibition by CLSI based microdilution method
# Candida albicans [4] = assay: Antifungal activity against fluconazole-resistant Candida albicans 17# assessed as fungal growth inhibition by CLSI based microdilution method
# Candida albicans [5] = assay: Antifungal activity against fluconazole-resistant Candida albicans 632 assessed as fungal growth inhibition by CLSI based microdilution method
# Candida albicans [6] = assay: Antifungal activity against fluconazole-resistant Candida albicans 904 assessed as fungal growth inhibition by CLSI based microdilution method
# Candida albicans [7] = assay: Antifungal activity against fluconazole-resistant Candida albicans 901 assessed as fungal growth inhibition by CLSI based microdilution method
compound,measurement,setting,value
O=c1oc2ccc(Cl)cc2cc1COC(Cn1ccnc1)c1ccc(Cl)cc1Cl (stereo not given),MIC,Candida albicans [1],16 µg/mL
same,MIC,Candida albicans [2],0.25 µg/mL
same,MIC,Candida parapsilosis,16 µg/mL
same,MIC,Nakaseomyces glabratus,128 µg/mL
same,MIC,Pichia kudriavzevii,128 µg/mL
same,MIC,Candida tropicalis,128 µg/mL
same,MIC,Cryptococcus neoformans,16 µg/mL
OB1OCc2cc(F)ccc21 [TAVABOROLE],MIC,Candida albicans [3],16 µg/mL
same,MIC,Candida albicans [4],32 µg/mL
same,MIC,Candida albicans [5],16 µg/mL
same,MIC,Candida albicans [6],16 µg/mL
same,MIC,Candida albicans [7],32 µg/mL
O=c1oc2ccccc2cc1COC(Cn1ccnc1)c1ccc(F)cc1F (stereo not given),MIC,Candida albicans [1],0.06 µg/mL
same,MIC,Candida albicans [2],0.03 µg/mL
same,MIC,Candida parapsilosis,< 0.25 µg/mL
same,MIC,Nakaseomyces glabratus,1 µg/mL
same,MIC,Pichia kudriavzevii,0.5 µg/mL
same,MIC,Candida tropicalis,1 µg/mL
same,MIC,Cryptococcus neoformans,0.06 µg/mL
same,MIC,Candida albicans [3],0.5 µg/mL
same,MIC,Candida albicans [4],2 µg/mL
same,MIC,Candida albicans [5],4 µg/mL
same,MIC,Candida albicans [6],2 µg/mL
same,MIC,Candida albicans [7],16 µg/mL
O=c1oc2c(Cl)cc(Cl)cc2cc1COC(Cn1ccnc1)c1ccc(Cl)cc1Cl (stereo not given),MIC,Candida albicans [1],> 128 µg/mL
same,MIC,Candida albicans [2],128 µg/mL
same,MIC,Candida parapsilosis,> 128 µg/mL
same,MIC,Nakaseomyces glabratus,> 128 µg/mL
same,MIC,Pichia kudriavzevii,> 128 µg/mL
same,MIC,Candida tropicalis,> 128 µg/mL
same,MIC,Cryptococcus neoformans,16 µg/mL
O=c1ccc2cc(COC(Cn3ccnn3)c3ccc(Cl)cc3Cl)ccc2o1 (stereo not given),MIC,Candida albicans [1],> 128 µg/mL
same,MIC,Candida albicans [2],128 µg/mL
same,MIC,Candida parapsilosis,64 µg/mL
same,MIC,Nakaseomyces glabratus,64 µg/mL
same,MIC,Pichia kudriavzevii,128 µg/mL
same,MIC,Candida tropicalis,64 µg/mL
same,MIC,Cryptococcus neoformans,128 µg/mL
O=c1oc2c(Cl)cc(Cl)cc2cc1COC(Cn1ccnc1)c1ccc(F)cc1F (stereo not given),MIC,Candida albicans [1],> 128 µg/mL
same,MIC,Candida albicans [2],> 128 µg/mL
same,MIC,Candida parapsilosis,> 128 µg/mL
same,MIC,Nakaseomyces glabratus,> 128 µg/mL
same,MIC,Pichia kudriavzevii,> 128 µg/mL
same,MIC,Candida tropicalis,> 128 µg/mL
same,MIC,Cryptococcus neoformans,64 µg/mL
O=c1ccc2ccc(COC(Cn3cnnn3)c3ccc(F)cc3F)cc2o1 (stereo not given),MIC,Candida albicans [1],> 128 µg/mL
same,MIC,Candida albicans [2],> 128 µg/mL
same,MIC,Candida parapsilosis,128 µg/mL
same,MIC,Nakaseomyces glabratus,64 µg/mL
same,MIC,Pichia kudriavzevii,32 µg/mL
same,MIC,Candida tropicalis,64 µg/mL
same,MIC,Cryptococcus neoformans,8 µg/mL
O=c1ccc2ccc(COC(Cn3ccnc3)c3ccc(F)cc3F)cc2o1 (stereo not given),MIC,Candida albicans [1],4 µg/mL
same,MIC,Candida albicans [2],0.25 µg/mL
same,MIC,Candida parapsilosis,16 µg/mL
same,MIC,Nakaseomyces glabratus,64 µg/mL
same,MIC,Pichia kudriavzevii,64 µg/mL
same,MIC,Candida tropicalis,8 µg/mL
same,MIC,Cryptococcus neoformans,64 µg/mL
same,MIC,Candida albicans [3],128 µg/mL
same,MIC,Candida albicans [4],128 µg/mL
same,MIC,Candida albicans [5],32 µg/mL
same,MIC,Candida albicans [6],32 µg/mL
same,MIC,Candida albicans [7],64 µg/mL
O=c1ccc2cc(COC(Cn3ccnc3)c3ccc(F)cc3)ccc2o1 (stereo not given),MIC,Candida albicans [1],2 µg/mL
same,MIC,Candida albicans [2],0.5 µg/mL
same,MIC,Candida parapsilosis,4 µg/mL
same,MIC,Nakaseomyces glabratus,32 µg/mL
same,MIC,Pichia kudriavzevii,64 µg/mL
same,MIC,Candida tropicalis,8 µg/mL
same,MIC,Cryptococcus neoformans,64 µg/mL
same,MIC,Candida albicans [3],128 µg/mL
same,MIC,Candida albicans [4],128 µg/mL
same,MIC,Candida albicans [5],64 µg/mL
same,MIC,Candida albicans [6],32 µg/mL
same,MIC,Candida albicans [7],64 µg/mL
O=c1ccc2cc(COC(Cn3cnnn3)c3ccc(Cl)cc3Cl)ccc2o1 (stereo not given),MIC,Candida albicans [1],1 µg/mL
same,MIC,Candida albicans [2],2 µg/mL
same,MIC,Candida parapsilosis,32 µg/mL
same,MIC,Nakaseomyces glabratus,16 µg/mL
same,MIC,Pichia kudriavzevii,64 µg/mL
same,MIC,Candida tropicalis,32 µg/mL
same,MIC,Cryptococcus neoformans,128 µg/mL
O=c1ccc2cc(COC(Cn3ccnc3)c3ccc(F)cc3F)ccc2o1 (stereo not given),MIC,Candida albicans [1],0.5 µg/mL
same,MIC,Candida albicans [2],0.25 µg/mL
same,MIC,Candida parapsilosis,2 µg/mL
same,MIC,Nakaseomyces glabratus,16 µg/mL
same,MIC,Pichia kudriavzevii,8 µg/mL
same,MIC,Candida tropicalis,2 µg/mL
same,MIC,Cryptococcus neoformans,32 µg/mL
same,MIC,Candida albicans [3],64 µg/mL
same,MIC,Candida albicans [4],4 µg/mL
same,MIC,Candida albicans [5],64 µg/mL
same,MIC,Candida albicans [6],32 µg/mL
same,MIC,Candida albicans [7],32 µg/mL
O=c1ccc2cc(COC(Cn3cncn3)c3ccc(Cl)cc3Cl)ccc2o1 (stereo not given),MIC,Candida albicans [1],4 µg/mL
same,MIC,Candida albicans [2],0.25 µg/mL
same,MIC,Candida parapsilosis,2 µg/mL
same,MIC,Nakaseomyces glabratus,32 µg/mL
same,MIC,Pichia kudriavzevii,16 µg/mL
same,MIC,Candida tropicalis,32 µg/mL
same,MIC,Cryptococcus neoformans,32 µg/mL
O=c1oc2ccc([N+](=O)[O-])cc2cc1COC(Cn1ccnc1)c1ccc(Cl)cc1Cl (stereo not given),MIC,Candida albicans [1],> 128 µg/mL
same,MIC,Candida albicans [2],64 µg/mL
same,MIC,Candida parapsilosis,> 128 µg/mL
same,MIC,Nakaseomyces glabratus,128 µg/mL
same,MIC,Pichia kudriavzevii,> 128 µg/mL
same,MIC,Candida tropicalis,> 128 µg/mL
same,MIC,Cryptococcus neoformans,128 µg/mL
C[C@@H](c1ncncc1F)[C@](O)(Cn1cncn1)c1ccc(F)cc1F [VORICONAZOLE],MIC,Candida albicans [3],> 128 µg/mL
same,MIC,Candida albicans [4],128 µg/mL
same,MIC,Candida albicans [5],64 µg/mL
same,MIC,Candida albicans [6],> 128 µg/mL
same,MIC,Candida albicans [7],> 128 µg/mL
O=c1ccc2cc(COC(Cn3cnnn3)c3ccc(F)cc3F)ccc2o1 (stereo not given),MIC,Candida albicans [1],1 µg/mL
same,MIC,Candida albicans [2],2 µg/mL
same,MIC,Candida parapsilosis,16 µg/mL
same,MIC,Nakaseomyces glabratus,16 µg/mL
same,MIC,Pichia kudriavzevii,128 µg/mL
same,MIC,Candida tropicalis,0.5 µg/mL
same,MIC,Cryptococcus neoformans,64 µg/mL
O=c1ccc2ccc(COC(Cn3ccnc3)c3ccc(F)cc3)cc2o1 (stereo not given),MIC,Candida albicans [1],2 µg/mL
same,MIC,Candida albicans [2],0.5 µg/mL
same,MIC,Candida parapsilosis,16 µg/mL
same,MIC,Nakaseomyces glabratus,64 µg/mL
same,MIC,Pichia kudriavzevii,32 µg/mL
same,MIC,Candida tropicalis,4 µg/mL
same,MIC,Cryptococcus neoformans,4 µg/mL
same,MIC,Candida albicans [3],128 µg/mL
same,MIC,Candida albicans [4],128 µg/mL
same,MIC,Candida albicans [5],32 µg/mL
same,MIC,Candida albicans [6],32 µg/mL
same,MIC,Candida albicans [7],64 µg/mL
COc1cccc2cc(COC(Cn3ccnc3)c3ccc(Cl)cc3Cl)c(=O)oc12 (stereo not given),MIC,Candida albicans [1],0.25 µg/mL
same,MIC,Candida albicans [2],0.25 µg/mL
same,MIC,Candida parapsilosis,0.5 µg/mL
same,MIC,Nakaseomyces glabratus,32 µg/mL
same,MIC,Pichia kudriavzevii,32 µg/mL
same,MIC,Candida tropicalis,128 µg/mL
same,MIC,Cryptococcus neoformans,0.5 µg/mL
